Laboratory results taken from patent US20210189367A1, “Inducible Cell Receptors for Cell-Based Therapeutics” (Senti Biosciences, Inc., priority 2017, published 2021).

Assays:
Assay type in all cases: cell-based, human
[1] = test system: Jurkat cells transduced with an anti-Her2 CAR fused to a self-excising degron; test: T cell activation (CD69) of anti-Her2 CAR-degron Jurkat cells on recombinant Her2; settings: 1 μM ASV 2 days, then recombinant Her2-coated plates overnight, even at high Her2 (10 μg/mL)
Experimental: The function of an anti-Her2 CAR fused to a self-excising degron in T cells was tested in vitro. Jurkat cells (an immortalized human T cell line) were transduced with an anti-Her2 CAR fused to a self-excising degron (SEQ ID NO: 4). These cells were incubated in the presence (1 μM ASV) or absence of the ASV protease inhibitor for 2 days, then subsequently placed on tissue culture plates coated with recombinant Her2 (low=2.5 μg/mL; high=10 μg/mL). Following overnight incubation, the ant-Her2 CAR T cells were stained with an anti-CD69 fluorescent antibody, and the mean fluorescence of each cell population was measured using flow cytometry. CD69 was used as a T-cell activation marker.

[2] = test system: CAR-T cells co-cultured with target HER2+ SKOV3 tumor cells; test: Cytokine production by CAR-T cells co-cultured with target tumor cells, Luminex multi-cytokine array; settings: CAR-SMASh T cells, ASV 2 μM, E:T 10:1
Text: Human […] pan T cells were isolated from PBMC donors by magnetic-assisted cell sorting using StemCell Technologies Total Pan T Cell Isolation Kit and stimulated with anti-CD3/28 Dynabeads at a 1:3 ratio (T cells:Dynabeads), 10^6 T cells with 3×10^6 Dynabeads, in CTS OpTmizer media with CTS Serum Replacement and recombinant human IL-2 [100 U/ml]. 1 day later T cells were then transduced with lentivirus carrying anti-HER2 scFv CAR-SMASh designs. CAR-T cells were then split into a larger well with fresh media added. On Day 6 CAR-T cells were treated with ASV [2 μM] for 2 days. On Day 8 CAR-T cells were washed, replenished with ASV, and co-cultured with target HER2+ SKOV3 tumor cells at (10:1) effector-to-target (E:T) ratio, incubated overnight, and supernatants collected the next day. Cytokines were measured by Luminex multi-cytokine array using a Luminex MagPix (Sigma Millipore).

[3] = test system: CAR; test: Switchable expression of CAR by application of ASV (YFP, flow cytometry), CAR T cells
Text: The first fusion protein (left) comprises an extracellular protein binding domain fused to a myc tag and three intracellular signaling domains fused to YFP. The second fusion protein (middle; “CAR-SMASh”) further comprises a Hepatitis C (HCV) NS4A-NS4B protease cleavage site, a HCV NS3 protease domain, and a degron derived from the HCV NS4A protein. The CAR-SMASh, therefore, expresses CAR, but induces degradation of CAR in the presence of ASV. The third fusion protein (right; “CAR-SMASh[GGS]”) is a CAR-SMASh mutant lacking the NS4 degron.
(§1) Human total pan T cells were isolated from PBMC donors by magnetic-assisted cell sorting using StemCell Technologies Total Pan T Cell Isolation Kit and stimulated with anti-CD3/28 Dynabeads at a 1:3 ratio (T cells:Dynabeads), 10^6 T cells with 3×10^Dynabeads, in CTS OpTmizer media with CTS Serum Replacement and recombinant human IL-2 [100 U/ml]. One day later T cells were then transduced with lentivirus carrying a CAR comprising anti-HER2 or anti-CD19 scFv. Specifically, lentivirus encoding CAR, CAR-SMASh and CAR-SMASh[GGS] comprising anti-HER2 or anti-CD19 scFv was transduced. CAR-T cells were then split into a larger well with fresh media added. On Day 5 CAR-T cells were exposed to ASV [2 μM] and then analyzed by flow cytometry to measure YFP expression at various time points, including on day 6 (FIG. 13) and on day 7 (FIG. 14).

[4] = test system: CAR; test: Switchable expression of CAR by removal of ASV (YFP, flow cytometry), CAR T cells; settings: T cells transduced with CAR (FIG. 16A)
Text: as §1, with “3×10^6 Dynabeads,” for “3×10^Dynabeads,”, “for 2 days, washed 2 times, then re-cultured in media without ASV” for “[2 μM]”, “were acquired” for “analyzed”, “cytometry” for “cytometry to measure YFP expression”, “points” for “points, including on day 6 (FIG. 13)”, “YFP expression was measured.” for “on day 7 (FIG. 14).”

For `C=C[C@@H]1C[C@]1(NC(=O)[C@@H]1C[C@@H](Oc2ncc(OC)c3ccc(Cl)cc23)CN1C(=O)[C@@H](NC(=O)OC(C)(C)C)C(C)(C)C)C(=O)NS(=O)(=O)C1CC1` [ASV, Asunaprevir], the “cells activated (CD69)” value [1] was “less than 25%”, the IFN-gamma production ([2]; overnight (FIG. 19A)) was “decreased production” and the IL-lalpha production ([2]; overnight (FIG. 19B)) was “decreased production”. For the same molecule, the IL-6 production ([2]; overnight (FIG. 19C)) was “decreased production”, the “CAR expression (percentage YFP+ and YFP MFI)” value ([3]; CAR T cells, ASV 2 μM, day 6 (FIG. 13)) was “no effect” and the “CAR expression (percentage YFP+) over time after addition of ASV” value ([3]; T cells expressing CAR (FIG. 15A)) was “no effect”. For the same molecule, the “reversible effects on CAR expression (percentage YFP+) after removal of ASV” value [4] was “not observed”.
